{
  "source": "patent EP1939191A1",
  "about": "“Furan derivatives, method of synthesis and uses thereof” (Neuropharma S.A., priority 2006, dated 2008)",
  "target": "Recombinant human glycogen synthase kinase 3 beta (Homo sapiens, UniProt P49841)",
  "sequence (P49841 whole entry)": "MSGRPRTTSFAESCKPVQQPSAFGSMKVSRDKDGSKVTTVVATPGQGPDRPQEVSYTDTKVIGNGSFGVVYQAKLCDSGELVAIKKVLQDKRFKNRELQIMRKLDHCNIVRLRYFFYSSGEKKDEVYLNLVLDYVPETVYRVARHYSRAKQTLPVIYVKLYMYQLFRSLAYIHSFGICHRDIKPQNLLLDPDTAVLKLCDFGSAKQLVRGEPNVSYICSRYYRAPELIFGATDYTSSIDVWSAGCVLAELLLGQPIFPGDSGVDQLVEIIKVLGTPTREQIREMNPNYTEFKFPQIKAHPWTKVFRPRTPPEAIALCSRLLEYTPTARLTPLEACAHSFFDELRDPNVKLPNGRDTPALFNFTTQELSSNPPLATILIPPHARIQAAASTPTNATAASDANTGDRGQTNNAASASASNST",
  "assay": "GSK-3 beta inhibition assay (33P-ATP, GS-2 peptide substrate, phosphocellulose filter counting)",
  "type": "biochemical",
  "conditions": "result in percentage of enzyme activity (lower = more inhibition); for activity at 50 µM: test compound at 50µM; for activity at 25 µM: test compound at 25µM",
  "experimental": "The GSK-3 beta activity of the compounds of formula (I) according to the present invention was determined by incubation of a mixture of recombinant human GSK-3 enzyme, a phosphate source and GSK-3 substrate in the presence and in the absence of the corresponding test compound, and by measuring the GSK-3 activity of this mixture. The compounds where tested at final concentrations of 25 and 50 µM.\nRecombinant human glycogen synthase kinase 3 beta was assayed in MOPS 8 mM pH 7.3, EDTA 0.2 mM, MgCl2 10 mM and sodium orthovanadate 0.25 mM in the presence of 62.5 µM of Phospho-Glycogen Synthase Peptide-2 (GS-2), 0.5 µCi gamma-^33P-ATP and unlabelled ATP at a final concentration of 12.5 µM. The final assay volume was 20 µl. After incubation for 30 minutes at 30 °C, 15 µl aliquots were spotted onto P81 phosphocellulose papers. Filters were washed four times for at least 10 minutes each and counted with 1.5 ml of scintillation cocktail in a scintillation counter.\nThe compounds of formula (I) of the present invention where submitted to the above indicated assays, in order to determine both their GSK-3 inhibition activity and BACE activity inhibition. The results are indicated in Table I, in percentage of the respective enzyme activity.",
  "data": [
    {"smiles": "CC(C)(C)[Si](OCCCCCc1ccco1)(c1ccccc1)c1ccccc1", "note": "[tert-Butyl-(5-furan-2-yl-pentyloxy)-diphenyl-silane]", "values": [
      {"measurement": "activity at 50 µM", "result": 16.1, "unit": "%"}
    ]},
    {"smiles": "CC(=CC=CC(C)CCC=C(C)COC(=O)C(C)(C)C)CCCc1ccoc1", "note": "(stereo not shown) [2,2-Dimethyl-propionic acid 13-furan-3-yl-2,6,10-trimethyl-trideca-2,7,9-trienyl ester]", "values": [
      {"measurement": "activity at 25 µM", "result": 45, "unit": "%"},
      {"measurement": "activity at 50 µM", "result": 27, "unit": "%"}
    ]},
    {"smiles": "CC(=CCCC(C)C=CC=C(C)CCCc1ccoc1)CO", "note": "(stereo not shown) [13-Furan-3-yl-2,6,10-trimethyl-trideca-2,7,9-trien-1-ol]", "values": [
      {"measurement": "activity at 25 µM", "result": 83.7, "unit": "%"},
      {"measurement": "activity at 50 µM", "result": 61.2, "unit": "%"}
    ]},
    {"smiles": "CC(=CC=CC(C)CCCO[Si](c1ccccc1)(c1ccccc1)C(C)(C)C)CCCc1ccoc1", "note": "(stereo not shown) [tert-Butyl-(11-furan-3-yl-4,8-dimethyl-undeca-5,7-dienyloxy)-diphenyl-silane]", "values": [
      {"measurement": "activity at 25 µM", "result": 29, "unit": "%"},
      {"measurement": "activity at 50 µM", "result": 14, "unit": "%"}
    ]},
    {"smiles": "CC(C)(C)[Si](OCCCc1ccco1)(c1ccccc1)c1ccccc1", "note": "[tert-Butyl-(3-furan-2-yl-propoxy)-diphenyl-silane]", "values": [
      {"measurement": "activity at 50 µM", "result": 33.5, "unit": "%"}
    ]},
    {"smiles": "CC(C)(C)[Si](OCCCCCCc1ccco1)(c1ccccc1)c1ccccc1", "note": "[tert-Butyl-(6-furan-2-yl-hexyloxy)-diphenyl-silane]", "values": [
      {"measurement": "activity at 50 µM", "result": 5.08, "unit": "%"}
    ]},
    {"smiles": "CCOC(=O)C=C(C)CCCc1ccoc1", "note": "[6-Furan-3-yl-3-methyl-hex-2-enoic acid ethyl ester]", "values": [
      {"measurement": "activity at 25 µM", "result": 83.7, "unit": "%"},
      {"measurement": "activity at 50 µM", "result": 67.4, "unit": "%"}
    ]},
    {"smiles": "OCC=Cc1ccoc1", "note": "[3-Furan-3-yl-prop-2-en-1-ol]", "values": [
      {"measurement": "activity at 25 µM", "result": 61.1, "unit": "%"},
      {"measurement": "activity at 50 µM", "result": 55.6, "unit": "%"}
    ]},
    {"smiles": "CC(C)(C)[Si](OCCc1ccco1)(c1ccccc1)c1ccccc1", "note": "[tert-Butyl-(2-furan-2-yl-ethoxy)-diphenyl-silane]", "values": [
      {"measurement": "activity at 50 µM", "result": 47.6, "unit": "%"}
    ]},
    {"smiles": "CC(C)(C)[Si](OCC(O)c1ccco1)(c1ccccc1)c1ccccc1", "note": "(stereo not shown) [2-(tert-Butyl-diphenyl-silanyloxy)-1-furan-2-yl-ethanol]", "values": [
      {"measurement": "activity at 50 µM", "result": 48.6, "unit": "%"}
    ]},
    {"smiles": "CC(C)(C)[Si](OCCCSCc1ccco1)(c1ccccc1)c1ccccc1", "note": "[tert-Butyl-[3-(furan-2-ylmethylsulfanyl)-propoxy]-diphenyl-silane]", "values": [
      {"measurement": "activity at 50 µM", "result": 17.4, "unit": "%"}
    ]}
  ]
}
